Assays:
dwf5-1 plants = assay: biochemical complementation of dwf5-1 plants with brassinolide and its biosynthetic intermediates (pedicel length); assay type: in vivo, Arabidopsis; conditions: for dwf5 pedicel length compared to a water-treated control: exogenous application, pedicel length measured 7 days after application (n=15), FIG. 2
Protocol: Standard procedures for plant growth, measurements on floral organs, scoring the number of seeds in a silique, biochemical complementation tests with Brassinosteroids, analysis of endogenous Brassinosteroids, and 13C-labeled mevalonic acid feeding experiments have been described previously (Choe, et al., 1999b). […] The ability of Brassinosteroids to rescue the phenotype of dwf5 was tested. The data presented in FIG. 2 show the biochemical complementation of dwf5-1 plants with brassinolide (BL) and its biosynthetic intermediates. […] The length of pedicels was measured 7 days after application (n=15). Data points represent the average with one standard deviation. Further, the BR biosynthetic intermediate 6-deoxocathasterone (6-DeoxoCT), and the synthetic compound 22-hydroxycampesterol (22-OHCR) induced pedicel growth up to 80% of wild-type length.

dwf5-1 seeds = assay: seed germination on agar-solidified Murashige and Skoog media; assay type: in vivo, Arabidopsis; conditions: germination media supplemented with 10^−7 M brassinolide; without it <60% of dwf5-1 seeds germinated vs >90% of wild type
Excerpt: The reduced germination of dwf5 seeds may be a secondary effect of retarded growth, or possibly DWF5 is involved in seed development and/or germination.

Row | SMILES | dwf5 pedicel length compared to a water-treated control (dwf5-1 plants) | rescue of the length of dwf5 pedicels to that of wild type (dwf5-1 plants; BL application) | correction of reduced germination of dwf5 seeds (dwf5-1 seeds)
1 | CC(C)[C@H](C)C[C@H](O)[C@@H](C)[C@H]1CC[C@H]2[C@@H]3CC=C4C[C@@H](O)CC[C@]4(C)[C@H]3CC[C@]12C [22-hydroxycampesterol] | significant increases | – | –
2 | CC(C)[C@H](C)[C@@H](O)[C@H](O)[C@@H](C)[C@H]1CC[C@H]2[C@@H]3COC(=O)[C@H]4C[C@H](O)[C@H](O)C[C@]4(C)[C@H]3CC[C@]12C [brassinolide] | significant increases | completely rescued | partially corrected
3 | CC(C)[C@H](C)C[C@H](O)[C@@H](C)[C@H]1CC[C@H]2[C@@H]3CC[C@H]4C[C@@H](O)CC[C@]4(C)[C@H]3CC[C@]12C [6-deoxocathasterone] | significant increases | – | –

Reference: patent US20020120111A1, “Dwf5 mutants” (priority 2000, published 2002)
